# From patent US10827753B2, “Compositions and methods for controlling nematodes” (Monsanto Technology LLC, priority 2007, dated 2020)
# Marks after values point to notes of the source that are not given here.
# Key:
# Meloidogyne incognita [1] = assay: M. incognita miniaturized greenhouse assay on cucumber seedlings (root galling); type: in vivo; parameters: key to 1 ppm gall ratings / 1 ppm gall rating: mean of 3 gall ratings: 0=0-5%, 1=6-20%, 2=21-50%, 3=51-100% root galled; conditions: for 8 ppm gall ratings: average of triplicate gall rating, scale 0-3 (% root mass galled)
# Experimental: The test compound is dissolved in an acetone solution and added to water. A sprouted cucumber seedling is placed into a vial with dry sand and the water-chemical solution is added immediately. Twenty four hours later Meloidogyne incognita eggs are added to the vials and 10 to 12 days later the roots are evaluated for nematode galling.
# Cucumber seeds are sprouted for 3 days in moist paper towels. Acceptable sprouts should be 3 to 4 cm long with several lateral roots just emerging. Stock solutions of chemistry are prepared in a mixture of acetone and Triton X100 (412 mg in 500 mL) to a final concentration of 5 mg/mL. The chemical stock solution is then added to 10 mL deionized water plus 0.015% Triton X100 and mixed thoroughly. This is enough to test each condition in triplicate. Ten mL dry sand is added to each vial. At this time the solubility of the chemistry is visually determined and recorded as either ppt (large precipitates) or cloudy (fine precipitates). Seedlings are planted by tilting the vial and laying the seedling in the correct orientation so that the cotyledons are just above the sand and then tilting back to cover the radicles with sand. 3.3 ml water/chemical mix is added to each vial and the vials placed in racks under fluorescent light banks. The vials are inoculated two days after planting by adding 500 vermiform M. incognita eggs to each vial in 50 uL of deionized or spring water. The vials are then kept under the fluorescent lamps at ambient room temperature and watered as needed with 1 mL deionized water, usually twice during duration of test. Harvest of the cucumber plants is done 10 to 12 days after inoculation by washing sand off the roots. A root gall rating and visual phytotoxicity rating is assigned using the following scales: Gall rating scale (Gall: % root mass galled): 0=0-5%; 1=6-20%; 2=21-50%; and 3=51-100%. The average of the triplicate gall rating is then calculated: green=0.00-0.33 (no galls); yellow=0.67-1.33 (mild galling); orange=1.67-2.33 (moderate galling); red=2.67-3.00 (severe galling). Visual phytotoxicity scale is also assigned (Vis. tox; visual reduction in root mass compared to the control): rs1=mild stunting; rs2=moderate stunting; rs3=severe stunting.
# root knot nematode (RKN) = assay: RKN greenhouse soil assay on cucumber plants; type: in vivo, Meloidogyne incognita
# Text: Cucumber seeds are planted in a sandy soil mixture in two inch square plastic pots. When the cotyledons are fully opened and just as the first leaf begins to emerge, usually 7 days after planting, chemistry for the 7 day treatment is applied. One week later the chemistry for the 0 day treatment is applied. Separate plants are used for each application. The plants are generally in the 1-2 leaf stage now. At least four hours after the chemistry application the pots are inoculated with root knot nematode (RKN) eggs. Plants are rated for galling 14 days after the egg inoculation.
# One milligram of chemistry per four pots is equal to one kilogram per hectare of chemical. A standard test uses four replications. For rates above 2 kg/ha, the desired amount of chemical is weighed into a 30 ml vial (example: 8 kg/ha rate=8 mg chemical in 30 ml vial). The chemical is dissolved in 2 ml of appropriate solvent, generally acetone. For rates below 2 kg/ha, 2 milligrams of chemistry is weighed into the vial and dissolved in 2 ml of the solvent. The appropriate amount of chemical concentrate is then pipetted into a separate 30 ml vial and solvent is added to bring the volume to 2 ml (example 0.5 kg/ha=0.5 ml of concentrate+1.5 ml solvent). Each dissolved concentrate is then brought to a total of 20 milliliters using 0.05% Triton X 100 surfactant solution.
# Pots to be treated are moist but not saturated. To each of four pots, five milliliters of the appropriate chemical solution is pipetted to the media surface making sure to avoid contact with the base of the plant. Immediately following chemical application, using a mist nozzle, the pot surface is wetted sufficiently to saturate the pot watering in the chemistry. The chemical application is done in the morning.
# Nematode eggs, either SCN or RKN, are added to distilled water to create a concentration of 1000 vermiform eggs […]. At least four hours after chemical treatment the eggs are applied to the treated pots plus non-treated check plants. A small hole about 1 cm deep is punched into the pot surface. One milliliter of the nematode egg slurry is pipetted into the hole. Immediately afterwards the hole is gently covered. Watering of the test plants is then restricted to only water as needed to prevent wilt for a period of 24 hours. After the 24 hour restricted watering, normal sub-irrigation watering is done for the duration of the test.
# Meloidogyne incognita [2] = assay: Summer field evaluation of pre-plant incorporated compounds on squash; type: in vivo; conditions: 2 kg PPI, squash
# Experimental: Test plots of 33 cm diameter holes were bored 41 cm deep into clay soil and filled with a mixture of 80% sand and 20% silt loam soil. Technical compound for each treatment was dissolved in 50 ml acetone containing 250 ul of Triton X-100 surfactant. This solution was added to 450 ml water and poured onto 95 liters of sand/soil mixture in a rotating drum mixer. While continuing to rotate the mixing drum 66 grams of chopped, galled, tomato roots was added and thoroughly distributed. The treated soil was sufficient to fill the top 15 cm of each of the 6 replicate plots, thus simulating a PPI treatment. The plots were then watered lightly and a mixture of M. incognita eggs and larvae were injected 5 cm deep at 5 points within the plot (100 k eggs/larvae in 10 ml per plot). Three-week old squash (cv. Liberator III) with 1 fully expanded true leaf was planted 4 days after soil treatment, one per plot.
structure (smiles),measurement,setting,value
"c1ccc(-c2cc(-c3ccco3)n[nH]2)cc1 [3-(furan-2-yl)-5-phenyl-1H-pyrazole, reference compound]","nematicidal activity (in words, referring to table 1D)",Meloidogyne incognita [1]; 8 ppm,nematicidal activity is seen
c1ccc(-c2nc(-c3cccs3)cs2)cc1 [compound 1787],1 ppm gall rating,Meloidogyne incognita [1]; Table 1D test b,3^b (3=51-100%)
same,8 ppm gall rating,"Meloidogyne incognita [1]; 8 ppm, Table 1D test b",1.67^b
Brc1ccc(-c2nnc(-c3cccs3)o2)cc1 [compound 4948],8 ppm gall ratings,Meloidogyne incognita [1]; 8 ppm,0 (0=0-5%)
FC(F)(F)c1ccc(-c2nnc(-c3cccs3)o2)cc1 [compound 4971],8 ppm gall ratings,Meloidogyne incognita [1]; 8 ppm,0.67
Cc1ccc(-c2nnc(-c3cccs3)o2)cc1 [compound 5006],8 ppm gall ratings,Meloidogyne incognita [1]; 8 ppm,0 (0=0-5%)
Clc1cccc(-c2nnc(-c3cccs3)o2)c1 [compound 5012],8 ppm gall ratings,Meloidogyne incognita [1]; 8 ppm,0.67
Clc1ccc(-c2nnc(-c3ccco3)o2)cc1 [compound 5082],8 ppm gall ratings,Meloidogyne incognita [1]; 8 ppm,1.67
Cc1ccccc1-c1nnc(-c2cccs2)o1 [compound 5090],8 ppm gall ratings,Meloidogyne incognita [1]; 8 ppm,1.67
FC(F)(F)c1ccc(-c2nnc(-c3ccco3)o2)cc1 [compound 5132],8 ppm gall ratings,Meloidogyne incognita [1]; 8 ppm,1.33
FC(F)(F)c1cccc(-c2noc(-c3ccco3)n2)c1 [compound 5181],8 ppm gall ratings,Meloidogyne incognita [1]; 8 ppm,0.33
FC(F)(F)c1cccc(-c2noc(-c3cccs3)n2)c1 [compound 5212],8 ppm gall ratings,Meloidogyne incognita [1]; 8 ppm,1 (1=6-20%)
c1cncc(-c2noc(-c3ccco3)n2)c1 [compound 5292],8 ppm gall ratings,Meloidogyne incognita [1]; 8 ppm,0.67
c1cncc(-c2noc(-c3cccs3)n2)c1 [compound 5297],8 ppm gall ratings,Meloidogyne incognita [1]; 8 ppm,0.33
c1ccc(-c2noc(-c3ccco3)n2)cc1 [compound 5383],1 ppm gall ratings,Meloidogyne incognita [1]; Table 1B test a,1.33^a
c1csc(-c2nnc(-c3cccc4ccccc34)o2)c1 [compound 5456],8 ppm gall ratings,Meloidogyne incognita [1]; 8 ppm,0.67
Ic1ccc(-c2noc(-c3cccs3)n2)cc1 [compound 5468],8 ppm gall ratings,Meloidogyne incognita [1]; 8 ppm,1 (1=6-20%)
Brc1ccc(-c2nc(-c3cccs3)no2)cc1 [compound 5475],8 ppm gall ratings,Meloidogyne incognita [1]; 8 ppm,1.33
Fc1ccc(-c2noc(-c3ccco3)n2)cc1 [compound 5478],8 ppm gall ratings,Meloidogyne incognita [1]; 8 ppm,0 (0=0-5%)
Clc1ccc(-c2nnc(-c3ccco3)o2)c(Cl)c1 [compound 5499],1 ppm gall ratings,Meloidogyne incognita [1]; Table 1B test a,1^a (1=6-20%)
same,8 ppm gall ratings,Meloidogyne incognita [1]; 8 ppm,0 (0=0-5%)
Ic1ccc(-c2noc(-c3ccco3)n2)cc1 [compound 5556],8 ppm gall ratings,Meloidogyne incognita [1]; 8 ppm,0.33
c1ccc(-c2cnc(-c3ccco3)o2)cc1 [compound 5586],8 ppm gall ratings,Meloidogyne incognita [1]; 8 ppm,0.67
Brc1ccc(-c2cnc(-c3ccco3)o2)cc1 [compound 5587],8 ppm gall ratings,Meloidogyne incognita [1]; 8 ppm,0 (0=0-5%)
Fc1ccc(-c2cnc(-c3ccco3)o2)cc1 [compound 5618],8 ppm gall ratings,Meloidogyne incognita [1]; 8 ppm,1.33
Cc1cccc(-c2noc(-c3cccs3)n2)c1 [compound 5622],8 ppm gall ratings,Meloidogyne incognita [1]; 8 ppm,0 (0=0-5%)
Cc1ccc(-c2noc(-c3cccs3)n2)cc1 [compound 5623],8 ppm gall ratings,Meloidogyne incognita [1]; 8 ppm,0 (0=0-5%)
Cc1cccc(-c2noc(-c3ccco3)n2)c1 [compound 5625],8 ppm gall ratings,Meloidogyne incognita [1]; 8 ppm,0.33
c1ccc(-c2csc(-c3cccs3)n2)cc1 [compound 5645],1 ppm gall rating,Meloidogyne incognita [1]; Table 1D test b,2^b (2=21-50%)
same,8 ppm gall rating,"Meloidogyne incognita [1]; 8 ppm, Table 1D test b",0^b (0=0-5%)
Brc1cccc(-c2noc(-c3cccs3)n2)c1 [compound 5663],1 ppm gall rating,Meloidogyne incognita [1]; Table 1D test b,1.67^b
same,8 ppm gall rating,"Meloidogyne incognita [1]; 8 ppm, Table 1D test b",0^b (0=0-5%)
same,8 ppm gall ratings,Meloidogyne incognita [1]; 8 ppm,0 (0=0-5%)
Cc1ccc(-c2nnc(-c3ccco3)o2)cc1 [compound 5666],8 ppm gall ratings,Meloidogyne incognita [1]; 8 ppm,1.33
Brc1cccc(-c2nnc(-c3ccco3)o2)c1 [compound 5671],8 ppm gall ratings,Meloidogyne incognita [1]; 8 ppm,0.67
Brc1cccc(-c2noc(-c3ccco3)n2)c1 [compound 5672],8 ppm gall ratings,Meloidogyne incognita [1]; 8 ppm,0 (0=0-5%)
c1ccc(-c2cc(-c3ccco3)n[nH]2)cc1 [compound 5725],1 ppm gall rating,Meloidogyne incognita [1]; Table 1D test a,3^a (3=51-100%)
same,8 ppm gall rating,"Meloidogyne incognita [1]; 8 ppm, Table 1D test a",1.33^a
Cc1ccc(-c2noc(-c3ccco3)n2)cc1 [compound 5735],1 ppm gall rating,Meloidogyne incognita [1]; Table 1D test a,2^a (2=21-50%)
same,8 ppm gall rating,"Meloidogyne incognita [1]; 8 ppm, Table 1D test a",0^a (0=0-5%)
Clc1ccccc1-c1noc(-c2cccs2)n1 [compound 5738],1 ppm gall rating,Meloidogyne incognita [1]; Table 1D test a,1.33^a
same,8 ppm gall rating,"Meloidogyne incognita [1]; 8 ppm, Table 1D test a",0^a (0=0-5%)
Cc1ccccc1-c1noc(-c2cccs2)n1 [compound 5741],1 ppm gall rating,Meloidogyne incognita [1]; Table 1D test a,1^a (1=6-20%)
same,8 ppm gall rating,"Meloidogyne incognita [1]; 8 ppm, Table 1D test a",0^a (0=0-5%)
Fc1cc(Cl)ccc1-c1noc(-c2cccs2)n1 [compound 5860],percent control (galling reduction) relative to the control blank treatment,"root knot nematode (RKN); 0 day treatment, 0.25 kg/ha, test a",47^a percent
same,percent control (galling reduction) relative to the control blank treatment,"root knot nematode (RKN); 0 day treatment, 1 kg/ha, test a",85^a percent
same,percent control (galling reduction) relative to the control blank treatment,"root knot nematode (RKN); 7 day treatment, 1 kg/ha, test a",86^a percent
Clc1ccc(-c2cnc(-c3cccs3)o2)cc1 [compound 5864],1 ppm gall ratings,Meloidogyne incognita [1]; Table 1B test a,1^a (1=6-20%)
Cc1occc1-c1nc(-c2ccc(Cl)cc2)no1 [compound 5867],1 ppm gall rating,Meloidogyne incognita [1]; Table 1C test a,1^a (1=6-20%)
COc1ccc(-c2noc(-c3ccoc3C)n2)cc1 [compound 5869],1 ppm gall rating,Meloidogyne incognita [1]; Table 1C test a,1^a (1=6-20%)
Cc1cc(Cl)ccc1-c1nnc(-c2ccoc2)o1 [compound 5876],1 ppm gall rating,Meloidogyne incognita [1]; Table 1C test c,1.67^c
Clc1ccc(-c2noc(-c3ccoc3)n2)cc1 [compound 5882],1 ppm gall ratings,Meloidogyne incognita [1]; Table 1B test a,0.67^a
same,1 ppm gall rating,Meloidogyne incognita [1]; Table 1C test c,0.67^c
Clc1ccc(-c2noc(-c3ccsc3)n2)cc1 [compound 5885],1 ppm gall rating,Meloidogyne incognita [1]; Table 1C test a,1^a (1=6-20%)
Clc1ccc(-c2cnc(-c3ccsc3)o2)cc1 [compound 5886],1 ppm gall rating,Meloidogyne incognita [1]; Table 1C test b,1.33^b
Clc1ccc(-c2cnc(-c3ccoc3)o2)cc1 [compound 5887],1 ppm gall rating,Meloidogyne incognita [1]; Table 1C test b,1^b (1=6-20%)
Clc1cc(Br)ccc1-c1nsc(-c2ccco2)n1 [compound 5961],percent control (galling reduction) relative to the control blank treatment,"root knot nematode (RKN); 0 day treatment, 0.05 kg/ha, test c",— — 73^c percent
same,percent control (galling reduction) relative to the control blank treatment,"root knot nematode (RKN); 0 day treatment, 0.1 kg/ha, test c",— — 88^c percent
same,percent control (galling reduction) relative to the control blank treatment,"root knot nematode (RKN); 0 day treatment, 0.25 kg/ha, test c",— — 81^c percent
Cc1cc(Cl)ccc1-c1nc(-c2ccco2)no1 [compound 5969],1 ppm gall ratings,Meloidogyne incognita [1]; Table 1B test e,1^e (1=6-20%)
Fc1cc(Cl)ccc1-c1ncc(-c2cccs2)o1 [compound 5970],1 ppm gall ratings,Meloidogyne incognita [1]; Table 1B test e,1^e (1=6-20%)
"CCOP(=O)(SC(C)CC)N1CCSC1=O (centres unmarked) [fosthiazate, reference compound]",0-3 vigor 16 DAP,Meloidogyne incognita [2],3.0
same,0-3 vigor 21 DAP,Meloidogyne incognita [2],3.0
same,feeder root (3 = ave) 31 DAP,Meloidogyne incognita [2],2.3
same,gall % 31 DAP,Meloidogyne incognita [2],5%
same,root wgt (g) 31 DAP,Meloidogyne incognita [2],26.4 g
same,top wgt (lbs) 31 DAP,Meloidogyne incognita [2],2.01 lbs
same,total fruit (lbs),Meloidogyne incognita [2],1.25 lbs
